From ChEMBL document CHEMBL3885881, “DrugMatrix”

Species on record: Rattus norvegicus
Assay: DrugMatrix - Regimen: Daily Repeat
Format: toxicity, organism-based, Sprague-Dawley
Design: regimen Daily Repeat, gender Male, age 6-8 weeks
Conditions: in vivo, sc, route subcutaneous, […]; for ABSOLUTE BASOPHIL / ABSOLUTE EOSINOPHIL / ABSOLUTE LYMPHOCYTE / ABSOLUTE MONOCYTE / ABSOLUTE SEGMENTED NEUTROPHIL / BASOPHIL / EOSINOPHIL / ERYTHROCYTE COUNT / HEMATOCRIT / HEMOGLOBIN / LEUKOCYTE COUNT / LYMPHOCYTE / MEAN CORPUSCULAR HEMOGLOBIN / MEAN CORPUSCULAR HEMOGLOBIN CONCENTRATION / MEAN CORPUSCULAR VOLUME / MONOCYTE / NEUTROPHIL / NUCLEATED RED BLOOD CELLS / PLATELET COUNT: tissue Blood; for ALANINE AMINOTRANSFERASE / ALBUMIN / ALKALINE PHOSPHATASE / ASPARTATE AMINOTRANSFERASE / BLOOD UREA NITROGEN / CARBON DIOXIDE / CHLORIDE / CHOLESTEROL / CREATINE PHOSPHOKINASE / CREATININE / GLUCOSE / LACTATE DEHYDROGENASE / LIPASE / PHOSPHORUS / POTASSIUM / SODIUM / TOTAL BILIRUBIN / TOTAL PROTEIN / URIC ACID: tissue Plasma
[1] = 0 mg/kg, 72 h, dose level Control, time 3 day
[2] = 0 mg/kg, 120 h, dose level Control, time 5 day
[3] = 50 mg/kg, 72 h, dose level Low, time 3 day

With `CC(C)(c1ccc(O)cc1)c1ccc(O)cc1` [BISPHENOL A] the “ABSOLUTE BASOPHIL” value [1] was 0 CELLS/uL, the “ABSOLUTE EOSINOPHIL” value [1] was 0 CELLS/uL and the “ABSOLUTE LYMPHOCYTE” value [1] was 9782.33 CELLS/uL. For the same compound, the “ABSOLUTE MONOCYTE” value [1] was 114.67 CELLS/uL, the “ABSOLUTE SEGMENTED NEUTROPHIL” value [1] was 753 CELLS/uL and the BASOPHIL [1] was 0%. For the same compound, the EOSINOPHIL [1] was 0%, the “ERYTHROCYTE COUNT” value [1] was 5.14 x10E6/uL and the HEMATOCRIT [1] was 32.12%. The HEMOGLOBIN [1] was 13.13 G/DL, the “LEUKOCYTE COUNT” value [1] was 10.65 x10E3/uL and the LYMPHOCYTE [1] was 91.83%. For the same compound, the “MEAN CORPUSCULAR HEMOGLOBIN” value [1] was 25.83 pg, the “MEAN CORPUSCULAR HEMOGLOBIN CONCENTRATION” value [1] was 41.28 G/DL and the “MEAN CORPUSCULAR VOLUME” value [1] was 62.43 fL. The MONOCYTE [1] was 1%, the NEUTROPHIL [1] was 7.17% and the “NUCLEATED RED BLOOD CELLS” value [1] was 0.17 /100WBC. For the same compound, the “PLATELET COUNT” value [1] was 657.83 x10E3/uL, the “ALANINE AMINOTRANSFERASE” value [1] was 60.33 u/L and the ALBUMIN [1] was 3.83 G/DL. For the same compound, the “ALKALINE PHOSPHATASE” value [1] was 366.33 u/L, the “ASPARTATE AMINOTRANSFERASE” value [1] was 104.5 u/L and the “BLOOD UREA NITROGEN” value [1] was 12.33 mg/dL. For the same compound, the “CARBON DIOXIDE” value [1] was 23.17 mmol/L, the CHLORIDE [1] was 96.67 MEQ/L and the CHOLESTEROL [1] was 73.17 mg/dL. For the same compound, the “CREATINE PHOSPHOKINASE” value [1] was 545.83 u/L, the CREATININE [1] was 0.26 mg/dL and the GLUCOSE [1] was 144.33 mg/dL. For the same compound, the “LACTATE DEHYDROGENASE” value [1] was 147.5 u/L, the LIPASE [1] was 9.33 u/L and the PHOSPHORUS [1] was 10.83 mg/dL. For the same compound, the POTASSIUM [1] was 5.68 MEQ/L, the SODIUM [1] was 138.83 MEQ/L and the “TOTAL BILIRUBIN” value [1] was 0.17 mg/dL. The “TOTAL PROTEIN” value [1] was 5.42 G/DL, the “URIC ACID” value [1] was 0.65 mg/dL and the “ABSOLUTE BASOPHIL” value [2] was 0 CELLS/uL. The “ABSOLUTE EOSINOPHIL” value [2] was 43.33 CELLS/uL, the “ABSOLUTE LYMPHOCYTE” value [2] was 12883 CELLS/uL and the “ABSOLUTE MONOCYTE” value [2] was 166.83 CELLS/uL. For the same compound, the “ABSOLUTE SEGMENTED NEUTROPHIL” value [2] was 1290.17 CELLS/uL, the BASOPHIL [2] was 0% and the EOSINOPHIL [2] was 0.33%. The “ERYTHROCYTE COUNT” value [2] was 5.79 x10E6/uL, the HEMATOCRIT [2] was 36.37% and the HEMOGLOBIN [2] was 14.17 G/DL. The “LEUKOCYTE COUNT” value [2] was 14.38 x10E3/uL, the LYMPHOCYTE [2] was 89.17% and the “MEAN CORPUSCULAR HEMOGLOBIN” value [2] was 24.48 pg. For the same compound, the “MEAN CORPUSCULAR HEMOGLOBIN CONCENTRATION” value [2] was 38.98 G/DL, the “MEAN CORPUSCULAR VOLUME” value [2] was 62.83 fL and the MONOCYTE [2] was 1.17%. For the same compound, the NEUTROPHIL [2] was 9.33%, the “NUCLEATED RED BLOOD CELLS” value [2] was 0.5 /100WBC and the “PLATELET COUNT” value [2] was 1267.33 x10E3/uL. For the same compound, the “ALANINE AMINOTRANSFERASE” value [2] was 53.5 u/L, the ALBUMIN [2] was 3.82 G/DL and the “ALKALINE PHOSPHATASE” value [2] was 342.33 u/L. The “ASPARTATE AMINOTRANSFERASE” value [2] was 83.67 u/L, the “BLOOD UREA NITROGEN” value [2] was 13.17 mg/dL and the “CARBON DIOXIDE” value [2] was 28.17 mmol/L. The CHLORIDE [2] was 101.5 MEQ/L, the CHOLESTEROL [2] was 70.83 mg/dL and the “CREATINE PHOSPHOKINASE” value [2] was 656.67 u/L. The CREATININE [2] was 0.17 mg/dL, the GLUCOSE [2] was 171.33 mg/dL and the “LACTATE DEHYDROGENASE” value [2] was 169 u/L. It also gave an LIPASE [2] of 9.17 u/L, a PHOSPHORUS [2] of 12.88 mg/dL and a POTASSIUM [2] of 6.54 MEQ/L. For the same compound, the SODIUM [2] was 141.2 MEQ/L, the “TOTAL BILIRUBIN” value [2] was 0.18 mg/dL and the “TOTAL PROTEIN” value [2] was 5.68 G/DL. For the same compound, the “URIC ACID” value [2] was 2.02 mg/dL, the “ABSOLUTE BASOPHIL” value [3] was 0 CELLS/uL and the “ABSOLUTE EOSINOPHIL” value [3] was 47.33 CELLS/uL. For the same compound, the “ABSOLUTE LYMPHOCYTE” value [3] was 13197 CELLS/uL, the “ABSOLUTE MONOCYTE” value [3] was 0 CELLS/uL and the “ABSOLUTE SEGMENTED NEUTROPHIL” value [3] was 655.67 CELLS/uL. The BASOPHIL [3] was 0%, the EOSINOPHIL [3] was 0.33% and the “ERYTHROCYTE COUNT” value [3] was 5.26 x10E6/uL. For the same compound, the HEMATOCRIT [3] was 33.73%, the HEMOGLOBIN [3] was 13.37 G/DL and the “LEUKOCYTE COUNT” value [3] was 13.9 x10E3/uL. For the same compound, the LYMPHOCYTE [3] was 94.67%, the “MEAN CORPUSCULAR HEMOGLOBIN” value [3] was 25.43 pg and the “MEAN CORPUSCULAR HEMOGLOBIN CONCENTRATION” value [3] was 39.67 G/DL. For the same compound, the “MEAN CORPUSCULAR VOLUME” value [3] was 64.23 fL, the MONOCYTE [3] was 0% and the NEUTROPHIL [3] was 5%. For the same compound, the “NUCLEATED RED BLOOD CELLS” value [3] was 0 /100WBC, the “PLATELET COUNT” value [3] was 1085.33 x10E3/uL and the “ALANINE AMINOTRANSFERASE” value [3] was 58.33 u/L. For the same compound, the ALBUMIN [3] was 4.1 G/DL, the “ALKALINE PHOSPHATASE” value [3] was 341 u/L and the “ASPARTATE AMINOTRANSFERASE” value [3] was 86.67 u/L. The “BLOOD UREA NITROGEN” value [3] was 11.33 mg/dL, the “CARBON DIOXIDE” value [3] was 27.67 mmol/L and the CHLORIDE [3] was 96.5 MEQ/L. The CHOLESTEROL [3] was 65.67 mg/dL, the “CREATINE PHOSPHOKINASE” value [3] was 317.33 u/L and the CREATININE [3] was 0.21 mg/dL. For the same compound, the GLUCOSE [3] was 134 mg/dL, the “LACTATE DEHYDROGENASE” value [3] was 126.67 u/L and the LIPASE [3] was 12.33 u/L. The PHOSPHORUS [3] was 10.53 mg/dL, the POTASSIUM [3] was 5.77 MEQ/L and the SODIUM [3] was 139.05 MEQ/L. For the same compound, the “TOTAL BILIRUBIN” value [3] was 0.17 mg/dL, the “TOTAL PROTEIN” value [3] was 5.33 G/DL and the “URIC ACID” value [3] was 0.37 mg/dL.
